The text below walks through data of patent US20250032658A1, “SYSTEMS AND METHODS FOR NEUTRALIZATION OF AIRBORNE ALLERGENS WITH ORGANIC ACIDS” (The Clorox Company, priority 2023, published 2025).

For data set [1] the following is noted: room temperature and standard pressure; cited from earlier work.
The conditions of data set [2]: cited from earlier work.
The nature of data set [3]: pKa / acid form of lactic acid. In kind it is physicochemical. Conditions: at a pH of 2.2. The source says: In some example embodiments, the pH of the anti-allergen formulations can be kept low. A low pH can enhance the organic acid efficacy (e.g., lactic acid efficacy) in neutralization of airborne allergens. Typically, pH is kept a least 1 unit below pKa of the organic acid to ensure majority (at least 90%) of acid stays in the active (conjugate acid) form. […].

SMILES strings stand for the structures. Read-outs that look alike come from different tables or passages of the source.

In the case of `CC(=O)O` [acetic acid], in data set [1], the “Vapor Pressure” value is recorded as 2080 Pa.
Take `O=C(O)CCCCC(=O)O` [adipic acid]: the “Vapor Pressure” value in data set [1] was 9.70 Pa.
In the case of `O=C(O)c1ccccc1` [benzoic acid], the “Vapor Pressure” value in data set [1] is given as 0.11 Pa.
Take `CCCC(=O)O` [butyric acid]: the “Vapor Pressure” value in data set [1] is 100 Pa.
For `O=C(O)CC(O)(CC(=O)O)C(=O)O` [citric acid], the “Vapor Pressure” value in data set [1] was 0.000002 Pa.
For the compound `O=C(O)/C=C/C(=O)O` [fumaric acid], in data set [2] (at ~20° C.), the Solubility in water was 0.7 g of compound in 100 g of water.
For the compound `NCC(=O)O` [glycine], the “Vapor Pressure” value in data set [1] is 0.000017 Pa.
Regarding `O=C(O)CO` [glycolic acid], the “Vapor Pressure” value in data set [1] is given as 0.41 Pa.
Take `CCCCCCC(=O)O` [heptanoic acid]: in data set [2] (at ~20° C.), the Solubility in water was 0.2 g of compound in 100 g of water. Further, the “Vapor Pressure” value in data set [1] is 1.35 Pa.
As to `CCCCCC(=O)O` [hexanoic acid], the Solubility in water in data set [2] was 1.03 g of compound in 100 g of water. In addition, the “Vapor Pressure” value in data set [1] is reported as 5.80 Pa.
Take `CC(O)C(=O)O` (stereo not drawn) [lactic acid]: the “lactic acid in the acidic form” value in data set [3] is “at least 95%”. For the same compound, the “Vapor Pressure” value in data set [1] was 10.00 Pa.
As for `CC(=O)CCC(=O)O` [levulinic acid], the Solubility in water in data set [2] (at ~20° C.) is 79.13 g of compound in 100 g of water. For the same compound, the “Vapor Pressure” value in data set [1] was 0.374 Pa.
`O=C(O)/C=C\C(=O)O` [maleic acid]: the Solubility in water in data set [2] (at ~20° C.) is recorded as 47.88 g of compound in 100 g of water.
Turning to `O=C(O)CC(O)C(=O)O` (stereo not drawn) [malic acid], the Solubility in water in data set [2] (at ~20° C.) is 64.7 g of compound in 100 g of water. Besides, in data set [1], the “Vapor Pressure” value is listed as 0.000004 Pa.
On to `O=C(O)CC(=O)O` [malonic acid], for which the “Vapor Pressure” value in data set [1] is recorded as 0.00049 Pa.
Consider `CS(=O)(=O)O` [methane sulfonic acid], for which the Solubility in water in data set [2] (at ~20° C.) was 100 g of compound in 100 g of water. Besides, the “Vapor Pressure” value in data set [1] is reported as 0.048 Pa.
For the compound `CCCCCCCC(=O)O` [octanoic acid], in data set [1], the “Vapor Pressure” value is listed as 0.49 Pa.
With `CCC(=O)O` [propionic acid], the “Vapor Pressure” value in data set [1] was 390 Pa.
Consider `CC(=O)C(=O)O` [pyruvic acid], for which, in data set [2] (at ~20° C.), the Solubility in water is on record as 100 g of compound in 100 g of water. In addition, in data set [1], the “Vapor Pressure” value is recorded as 172 Pa.
Consider `C/C=C/C=C/C(=O)O` [sorbic acid], for which the Solubility in water in data set [2] (at ~20° C.) is 0.156 g of compound in 100 g of water. Moreover, in data set [1], the “Vapor Pressure” value is given as 0.018 Pa.
For `CCCCC(=O)O` [valeric acid], the Solubility in water in data set [2] (at ~20° C.) is 3.75 g of compound in 100 g of water. In addition, the “Vapor Pressure” value in data set [1] is reported as 100 Pa.
